The results in this text go back to patent US7655624B2, “Peptide and peptide mimetic conjugates with integrin-inhibitor properties” (Biomet Deutschland GmbH, priority 2000, dated 2010).

The experiment relates to mouse MC3T3 H1 osteoblast cultures. In words: Cell adhesion test on RGD-peptide-coated material surfaces. To be noted: adhered cells/inoculated cells x 100; 50 000 cells/cm^2 inoculated on peptide-coated material surface; serum-free medium, 37° C./95% atmospheric humidity, one hour. The experiment is classed as cell-based. The method, then: The shaped articles are transferred into 48 wells (Costar, “non-tissue culture treated” Art. No. 3574). To attach the bioactive, cell adhesion-mediating molecules B (where B can be a cyclopeptide, peptide mimetic or linear peptide according to claim 2) to the prepared shaped articles, molecule B-containing stock solutions (“B solutions”) are prepared in a final concentration of 1 mM in one of the aqueous buffers Tris-HCl (10 mM, pH 8.7), Tris-HClO4 (10 mM, pH 8.7) or PBS, pH 7.4. Concentration series with the “B solutions” final concentrations of in each case 1 nm, 10 nm, 100 nm, 1 μm, 10 μm and 100 μm are then prepared by dilution with PBS, pH 7.4. The shaped articles are each covered with 250 μl of the respective B solution and then incubated at room temperature for 18-24 hours. To remove unbound B molecules, the samples are washed three times with PBS, pH 7.4, and stored in PBS, pH 7.4, at 4° C. overnight. […]
The adhesion of mouse MC3T3 H1 osteoblast cultures in vitro to RGD-peptide-coated material surfaces was investigated. In this test, 50 000 cells/cm^2 were inoculated and, after incubation in serum-free medium at 37° C./95% atmospheric humidity for one hour, the proportion of adhered cells was determined. […]

In turn, “Cyclo-(Arg-Gly-Asp-DPhe-Lys (N^εH[CO—(CH2)5—NH]2-Lys-[Lys-(CO—CH2—CH2—PO3H2)2]2)) [Example 4]” displayed a cell adhesion rate of 75%.
As to “Cyclo-(Arg-Gly-Asp-DPhe-Lys (N^εH—[CO—(CH2)5—NH]3-Lys-[Lys-(CO—CH2—CH2—PO3H2)2]2) [Example 5]”, the cell adhesion rate is 62%.
